Laboratory results reported in patent US20100035943A1, “Oxa-and thiadiazoles and their use as metalloproteinase inhibitors” (VERNALIS (OXFORD) LTD, priority 2002, published 2010).

How the values were obtained:
92 kDa gelatinase (MMP9) = 92 kDa gelatinase (MMP9) (Homo sapiens, UniProt P14780); test: MMP9 enzyme inhibition assay (fluorogenic peptide substrate McaPLGLDpaAR); format: biochemical; conditions: recombinant human 92 kDa gelatinase, 37° C., 2 hours
Description: (§1) Compounds were tested for inhibitory activity against 92 kDa gelatinase (MMP9) in an assay using a coumarin-labelled peptide substrate, (7-methoxycoumarin-4-yl)acetyl-Pro-Leu-Gly-Leu-(3-[2,4-dinitrophenyl]-L-2,3-diaminopropionyl)-Ala-Arg-NH2 (McaPLGLDpaAR) (Knight et al, FEBS Lett. 1992; 263-266).
(§2) Stock solutions were made up as follows: • Assay Buffer: 100 mM Tris-HCl pH 7.6 containing 100 mM NaCl, 10 mM CaCl2, and 0.05% Brij 35 • Substrate: 0.4 mM McaPLGLDpaAR (from Bachem) (0.437 mg/ml) stock solution in 100% DMSO (stored at −20° C.). Dilute to 8 μM in assay buffer. • Enzyme: Recombinant human 92 kDa gelatinase (MMP-9; APMA (4-aminophenyl • mercuric acetate)—activated if necessary) appropriately diluted in assay buffer.
(§3) Test Compounds were prepared initially as 10 mM compound solution in 100% DMSO, diluted to 1 mM in 100% DMSO, then serially diluted 3-fold in 100% DMSO across columns 1-10 of a 96-well microtitre plate Assay concentration range, 100 μM (column 1) to 5.1 nM (column 10)
(§4) The assay was performed in a total volume of 100 μl per well in 96-well microtitre plates. Activated enzyme (20 μl) was added to the wells followed by 20 μl of assay buffer. Appropriate concentrations of test compounds dissolved in 10 μl of DMSO were then added followed by 50 μl of McaPLGLDpaAR (8 μM, prepared by dilution of DMSO stock in assay buffer). For each assay ten concentrations of test compound were examined in duplicate. Control wells lack either enzyme or test compound. The reactions were incubated at 37° C. for 2 hours. The fluorescence at 405 nm was measured immediately with an SLT Fluostar fluorometer (SLT Labinstruments GmbH, Grödig, Austria) using 320 nm excitation, without stopping the reaction.
(§5) The effect of the test compound was determined from the dose response curve generated by the 10 duplicate concentrations of inhibitor. The IC50 (the concentration of compound required to give a 50% decrease in enzyme activity) was obtained by fitting data to the equation, Y=a+((b−a)/(1+(c/X)^d)). (Y=inhibition achieved for a particular dose; X=the dose in nM; a=minimum y or zero % inhibition; b=maximum y or 100% inhibition; c=is the IC50; d=is the slope). The result was rounded to one significant figure.

collagenase (MMP1) = target: T1, collagenase (MMP1) (Homo sapiens, UniProt P03956); test: MMP1 enzyme inhibition assay (fluorogenic peptide substrate McaPLGLDpaAR); format: biochemical; conditions: protocol as for MMP9 assay
T1 sequence (P03956 100-469): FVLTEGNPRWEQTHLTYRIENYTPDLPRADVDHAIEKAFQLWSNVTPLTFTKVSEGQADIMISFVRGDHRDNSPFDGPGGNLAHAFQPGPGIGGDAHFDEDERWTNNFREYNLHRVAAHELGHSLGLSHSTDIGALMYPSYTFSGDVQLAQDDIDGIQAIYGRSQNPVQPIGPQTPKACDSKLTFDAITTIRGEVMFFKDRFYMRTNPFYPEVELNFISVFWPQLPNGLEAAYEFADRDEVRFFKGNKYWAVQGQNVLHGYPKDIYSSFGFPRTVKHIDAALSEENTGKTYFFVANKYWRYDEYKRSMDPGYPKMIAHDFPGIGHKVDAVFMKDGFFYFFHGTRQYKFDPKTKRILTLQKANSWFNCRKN
Description: as §2, §3, §4, §5
as §1, with “• Compounds” for “Compounds”, “collagenase (MMP1)” for “92 kDa gelatinase (MMP9)”, “263-266). The protocol for this assay was as described for the MMP9 assay above.” for “263-266).”

[1] = test system: IL2-induced lymphocyte recruitment; test: IL2-induced peritoneal recruitment of lymphocytes; format: in vivo, C3H/HEN mice; conditions: mice, 15 min prior to IL2, cells counted 24 hours after IL2
Description: Administration of IL2 intraperitoneally causes migration of lymphocytes into the intraperitoneal cavity. This is a model for the cellular migration that occurs during inflammation.
C3H/HEN mice (Elevage Janvier, France) were intraperitoneally injected with IL2 (Serono Pharmaceutical Research Institute, 20 μg/kg, in saline). Compounds of the invention were suspended in 0.5% carboxymethylcellulose (CMC)/0.25% tween-20 and were administered by sc or po route (10 ml/kg) 15 min prior to administration of IL2.
Twenty-four hours after administration of IL2, peritoneal white blood cells were collected by 3 successive lavages of the peritoneal cavity with 5 ml phosphate buffered saline (PBS)-1 mM EDTA (+4° C.). The suspension was centrifuged (1700 g×10 min at +4° C.). The resulting pellet was suspended in 1 ml PBS-1 mM EDTA.
Lymphocytes were identified and counted using a Beckman/Coulter counter.
The animals were divided into 5 groups (6 mice each group):
Group 1: (baseline) received 0.5% CMC/0.25% tween-20 (vehicle of compound of the invention) and saline (vehicle of IL2); Group 2: (control IL2) received 0.5% CMC/0.25% tween-20 and injection of IL2; Group 3: Experimental group (Compound of the invention Dose 1) received a compound of the invention and injection of IL2; Group 4: Experimental group (Compound of the invention Dose 2) received a compound of the invention and injection of IL2; Group 5: Experimental group (Compound of the invention Dose 3) received a compound of the invention and injection of IL2; Group 6: Reference group received reference compound dexamethasone and injection of IL2
Inhibition of lymphocyte recruitment was calculated as follows:
Where Ly 1=Number of lymphocytes in group 1 (E3/μl), Ly 2=Number of lymphocytes in group 2 (E3/μl), Ly X=Number of lymphocytes in group X (3-5) (E3/μl)
The dose of compound of the invention required to inhibit lymphocyte recruitment by 50% (ID50) was calculated using a curve-fitting routine.

Sequence of 92 kDa gelatinase (MMP9) (P14780 107-707 limits assumed): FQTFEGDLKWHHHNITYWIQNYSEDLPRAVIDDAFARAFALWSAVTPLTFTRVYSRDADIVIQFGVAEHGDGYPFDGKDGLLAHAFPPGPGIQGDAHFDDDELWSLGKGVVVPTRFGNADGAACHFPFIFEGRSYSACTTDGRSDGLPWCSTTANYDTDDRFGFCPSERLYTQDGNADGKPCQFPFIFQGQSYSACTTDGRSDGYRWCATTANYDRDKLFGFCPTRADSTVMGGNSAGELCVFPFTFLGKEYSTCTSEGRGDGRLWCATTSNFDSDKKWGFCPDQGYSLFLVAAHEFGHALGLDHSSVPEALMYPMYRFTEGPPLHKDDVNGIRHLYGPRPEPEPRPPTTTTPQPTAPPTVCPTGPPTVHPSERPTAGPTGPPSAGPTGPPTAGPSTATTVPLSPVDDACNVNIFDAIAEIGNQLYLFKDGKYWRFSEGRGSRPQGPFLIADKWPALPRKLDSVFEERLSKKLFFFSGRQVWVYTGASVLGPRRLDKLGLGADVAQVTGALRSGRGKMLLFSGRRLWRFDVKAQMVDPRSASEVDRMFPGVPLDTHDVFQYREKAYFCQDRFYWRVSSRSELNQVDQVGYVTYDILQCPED

- IC50 (92 kDa gelatinase (MMP9)): 100 to 1000 nM
- IC50 (collagenase (MMP1)): 100 to 1000 nM
Compound: CC(C)C[C@@H](C(=O)N[C@H](c1noc(-c2cccs2)n1)C(C)(C)C)[C@H](O)C(=O)NO [Example 13, 2S-Hydroxy-3R-[1S-(5-thiophen-2-yl-[1,2,4]oxadiazol-3-yl)-2,2-dimethyl-propylcarbamoyl]-5-methyl Hexanohydroxamic Acid]
- ID50 for inhibition of IL2-induced peritoneal recruitment of lymphocytes ([1]; Oral route): 1 mg/kg
- ID50 for inhibition of IL2-induced peritoneal recruitment of lymphocytes ([1]; Subcutaneous route): 0.1 mg/kg
